Source: patent publication US10562909B2, “Fused quadracyclic compounds, compositions and uses thereof” (Tabomedex Biosciences, LLC, priority 2016, dated 2020)

Target: MAPKAPK2 (Homo sapiens, UniProt P49137)
Assay: MK2 Enzymatic Assay
Type: biochemical
Settings: 0.5 nM MAPKAPK2, 3 μM ATP, 2 μM Ser/Thr4 peptide, 23° C., values given as concentration bins
Method in brief: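 Percent phosphorylation was derived from coumarin and fluorescein emissions relative to 0% and 100% phospho-peptide controls, read after a 120 min development step. Reactions used 2× stocks of 1 nM kinase, 4 μM peptide and 6 μM ATP; enzyme and peptide sat 20 min before a 120 min ATP reaction.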

MAPKAPK2, sequence (P49137 whole entry, species assumed): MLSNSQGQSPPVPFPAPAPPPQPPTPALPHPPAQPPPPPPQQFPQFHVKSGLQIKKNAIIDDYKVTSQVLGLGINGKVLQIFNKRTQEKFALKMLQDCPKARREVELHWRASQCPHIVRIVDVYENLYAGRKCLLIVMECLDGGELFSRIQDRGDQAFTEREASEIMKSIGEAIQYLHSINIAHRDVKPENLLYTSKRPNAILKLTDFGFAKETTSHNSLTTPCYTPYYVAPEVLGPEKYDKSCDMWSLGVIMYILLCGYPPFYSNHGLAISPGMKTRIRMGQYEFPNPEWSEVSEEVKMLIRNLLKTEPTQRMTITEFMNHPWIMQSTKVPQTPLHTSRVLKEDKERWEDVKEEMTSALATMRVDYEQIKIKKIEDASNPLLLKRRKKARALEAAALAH

**Q.** `CNC[C@H]1CN(c2ccc3c(c2)Cn2cc(-c4ccc(F)cc4)cc2-c2nccn2-3)C[C@H]1O` [Compound 482, (3S,4S)-1-(12-(4-fluorophenyl)-9H-benzo[e]imidazo[2,1-c]pyrrolo[1,2-a][1,4]diazepin-7-yl)-4-((methylamino)methyl)pyrrolidin-3-ol] was tested. Which IC50 did it give?
**A.** < 0.05 µM

**Q.** How did the IC50 turn out when `N#Cc1ccc(-c2cc3n(c2Cl)Cc2cc(N4CC[C@H](CN)C4)ccc2-n2cnnc2-3)cc1` [Compound 171, (R)-4-(7-(3-(aminomethyl)pyrrolidin-1-yl)-11-chloro-9H-benzo[e]pyrrolo[1,2-a][1,2,4]tri-azolo[3,4-c][1,4]diazepin-12-yl)benzonitrile] was run?
**A.** 0.05 to 0.1 µM

**Q.** With `N#Cc1ccc(-c2cc3n(c2)Cc2cc(N4CC[C@@H](CN5CCC(O)CC5)C4)ccc2-n2cnnc2-3)cc1` [Compound 110, (S)-4-(7-(3-((4-hydroxypiperidin-1-yl)methyl)pyrrolidin-1-yl)-9H-benzo[e]pyrrolo[1,2-a] [1,2,4]triazolo[3,4-c][1,4]diazepin-12-yl)benzonitrile] as the molecule, how does the IC50 read?
**A.** < 0.05 µM

**Q.** For `CN(C)C[C@@H]1CN(c2ccc3c(c2)Cn2cc(-c4ccc(F)cc4)cc2-c2nccn2-3)C[C@H]1O` [Compound 357, (3S,4R)-4-((dimethylamino)methyl)-1-(12-(4-fluorophenyl)-9H-benzo[e]imidazo[2,1-c]pyrrolo[1,2-a][1,4]diazepin-7-yl)pyrrolidin-3-ol], which IC50 is on record?
**A.** < 0.05 µM

**Q.** For `CN(C)C[C@@H]1CN(c2ccc3c(c2)Cn2cc(-c4ccc(C#N)cc4)cc2-c2nccn2-3)C[C@H]1O` [Compound 138, 4-(7-((3R,4S)-3-((dimethylamino)methyl)-4-hydroxypyrrolidin-1-yl)-9H-benzo[e]imidazo[2,1-c]pyrrolo[1,2-a][1,4]diazepin-12-yl)benzonitrile], which IC50 is on record?
**A.** < 0.05 µM

**Q.** Which IC50 does the source give for `COCc1cnc2n1-c1ccc(N3CC[C@@H](N(C)C)C3)cc1Cn1cc(-c3ccc(C#N)cc3)cc1-2` [Compound 278, 4-(7-((R)-3-(dimethylamino)pyrrolidin-1-yl)-3-(methoxymethyl)-9H-benzo[e]imidazo[2,1-c]pyrrolo[1,2-a][1,4]diazepin-12-yl)benzonitrile] here?
**A.** < 0.05 µM

**Q.** With `C[C@H](CO)NC[C@@H]1CCN(c2ccc3c(c2)Cn2cc(-c4ccc(F)cc4)cc2-c2ncnn2-3)C1` [Compound 419, (R)-2-((((S)-1-(12-(4-fluorophenyl)-9H-benzo[e]pyrrolo[1,2-a][1,2,4]triazolo[5,1-c][1,4]diazepin-7-yl)pyrrolidin-3-yl)methyl)amino)propan-1-ol] as the molecule, how does the IC50 read?
**A.** < 0.05 µM

**Q.** Which IC50 does the source give for `CN(C)[C@@H]1CN(c2ccc3c(n2)Cn2cc(-c4ccc(C#N)cc4)cc2-c2nccn2-3)C[C@@H]1O` [Compound 303, 4-(7-((3R,4S)-3-(dimethylamino)-4-hydroxypyrrolidin-1-yl)-9H-imidazo[2,1-c]pyrido[3,2-e]pyrrolo[1,2-a][1,4]diazepin-12-yl)benzonitrile] here?
**A.** 0.05 to 0.1 µM

**Q.** How did the IC50 turn out when `N#Cc1ccc(-c2cc3n(c2)Cc2cc(N4CCNCC4)ccc2-n2cnnc2-3)cc1` [Compound 1, 4-(7-(piperazin-1-yl)-9H-benzo[e]pyrrolo[1,2-a][1,2,4]triazolo[3,4-c][1,4]diazepin-12-yl)benzonitrile] was run?
**A.** 0.1 to 0.2 µM

**Q.** For `CNCC1CN(c2ccc3c(c2)Cn2cc(-c4ccc(F)cc4)cc2-c2nccn2-3)C1` [Compound 341, 1-(1-(12-(4-fluorophenyl)-9H-benzo[e]imidazo[2,1-c]pyrrolo[1,2-a][1,4]diazepin-7-yl)azetidin-3-yl)-N-methylmethanamine], which IC50 is on record?
**A.** < 0.05 µM

**Q.** With `C[C@H]1c2cc(N3C[C@@H](CN(C)C)[C@H](O)C3)ccc2-n2ccnc2-c2cc(-c3ccc(F)cc3)cn21` [Compound 509, (3S,4R)-4-((dimethylamino)methyl)-1-((S)-12-(4-fluorophenyl)-9-methyl-9H-benzo[e]imidazo[2,1-c]pyrrolo[1,2-a][1,4]diazepin-7-yl)pyrrolidin-3-ol] as the molecule, how does the IC50 read?
**A.** < 0.05 µM

**Q.** For `N[C@@H]1CCCN(c2ccc3c(c2)Cn2cc(-c4ccc(F)cc4)cc2-c2nnnn2-3)C1` [Compound 389, (R)-1-(12-(4-fluorophenyl)-9H-benzo[e]pyrrolo[1,2-a]tetrazolo[5,1-c][1,4]diazepin-7-yl) piperidin-3-amine], which IC50 is on record?
**A.** < 0.05 µM

**Q.** Which IC50 does the source give for `CN(C)[C@H]1CCN(c2ccc3c(c2)Cn2cc(-c4ccc(F)cc4)cc2-c2nnnn2-3)C1` [Compound 407, (S)-1-(12-(4-fluorophenyl)-9H-benzo[e]pyrrolo[1,2-a]tetrazolo[5,1-c][1,4]diazepin-7-yl)-N,N-dimethylpyrrolidin-3-amine] here?
**A.** 0.05 to 0.1 µM

**Q.** For `CC(C)(CO)NC[C@@H]1CCN(c2ccc3c(c2)Cn2cc(-c4ccc(C#N)cc4)cc2-c2nccn2-3)C1` [Compound 141, (S)-4-(7-(3-(((1-hydroxy-2-methylpropan-2-yl)amino)methyl)pyrrolidin-1-yl)-9H-benzo[e]imidazo[2,1-c]pyrrolo[1,2-a][1,4]diazepin-12-yl)benzonitrile], which IC50 is on record?
**A.** < 0.05 µM

**Q.** How did the IC50 turn out when `C[C@@H]1CN(c2ccc3c(c2)Cn2cc(-c4ccc(C#N)cc4)cc2-c2nnnn2-3)C[C@H](C)N1` [Compound 242, 4-(7-(cis-3,5-dimethylpiperazin-1-yl)-9H-benzo[e]pyrrolo[1,2-a]tetrazolo[5,1-c][1,4]diazepin-12-yl)benzonitrile] was run?
**A.** 0.05 to 0.1 µM

**Q.** For `CN(C)C[C@H]1CCN(c2ccc3c(c2)Cn2cc(-c4ccc(F)cc4)cc2-c2ncnn2-3)C1` [Compound 414, (R)-1-(1-(12-(4-fluorophenyl)-9H-benzo[e]pyrrolo[1,2-a][1,2,4]triazolo[5,1-c][1,4]diazepin-7-yl)pyrrolidin-3-yl)-N,N-dimethylmethanamine], which IC50 is on record?
**A.** 0.05 to 0.1 µM

**Q.** `C[C@@H](CO)N(C)C1CCN(c2ccc3c(c2)Cn2cc(-c4ccc(C#N)cc4)cc2-c2nncn2-3)CC1` [Compound 104, (S)-4-(7-(4-((1-hydroxypropan-2-yl)(methyl)amino)piperidin-1-yl)-9H-benzo[e]pyrrolo[1,2-a][1,2,4]triazolo[3,4-c][1,4]diazepin-12-yl)benzonitrile] was tested. Which IC50 did it give?
**A.** 0.1 to 0.2 µM

**Q.** Which IC50 does the source give for `CN(C)C[C@@H]1CN(c2ccc3c(c2)Cn2cc(-c4ccc(F)cc4)cc2-c2ncnn2-3)C[C@@H]1F` [Compound 500, 1-((3R,4R)-4-fluoro-1-(12-(4-fluorophenyl)-9H-benzo[e]pyrrolo[1,2-a][1,2,4]triazolo[5,1-c] [1,4]diazepin-7-yl)pyrrolidin-3-yl)-N,N-dimethylmethanamine] here?
**A.** 0.1 to 0.2 µM

**Q.** For `CN(C)[C@@H]1CN(c2ccc3c(n2)Cn2cc(-c4ccc(C#N)cc4)cc2-c2nccn2-3)C[C@H]1O` [Compound 300, 4-(7-((3R,4R)-3-(dimethylamino)-4-hydroxypyrrolidin-1-yl)-9H-imidazo[2,1-c]pyrido[3,2-e]pyrrolo[1,2-a][1,4]diazepin-12-yl)benzonitrile], which IC50 is on record?
**A.** < 0.05 µM

**Q.** Which IC50 does the source give for `CN1CC2(CCN(c3ccc4c(c3)Cn3cc(-c5ccc(C#N)cc5)cc3-c3nnnn3-4)C2)C1` [Compound 240, 4-(7-(2-methyl-2,6-diazaspiro[3.4]octan-6-yl)-9H-benzo[e]pyrrolo[1,2-a]tetrazolo[5,1-c] [1,4]diazepin-12-yl)benzonitrile] here?
**A.** < 0.05 µM

**Q.** Which IC50 does the source give for `NC[C@H]1CCN(c2ccc3c(c2)Cn2cc(-c4ccc(F)cc4)cc2-c2nncn2-3)C1` [Compound 334, (R)-(1-(12-(4-fluorophenyl)-9H-benzo[e]pyrrolo[1,2-a][1,2,4]triazolo[3,4-c][1,4]diazepin-7-yl)pyrrolidin-3-yl)methanamine] here?
**A.** < 0.05 µM

**Q.** How did the IC50 turn out when `CN(C)[C@@H]1CN(c2ccc3c(c2)Cn2cc(-c4ccc(F)cc4)cc2-c2ncnn2-3)C[C@H]1CO` (relative stereo) [Compound 504, (Trans-4-(dimethylamino)-1-(12-(4-fluorophenyl)-9H-benzo[e]pyrrolo[1,2-a][1,2,4]triazolo[5,1-c][1,4]diazepin-7-yl)pyrrolidin-3-yl)methanol] was run?
**A.** 0.1 to 0.2 µM

**Q.** For `CN1CC2(CCN(c3ccc4c(n3)Cn3cc(-c5ccc(F)cc5)cc3-c3nccn3-4)C2)C1` [Compound 441, 12-(4-fluorophenyl)-7-(2-methyl-2,6-diazaspiro[3.4]octan-6-yl)-9H-imidazo[2,1-c]pyrido[3,2-e]pyrrolo[1,2-a][1,4]diazepine], which IC50 is on record?
**A.** < 0.05 µM

**Q.** With `O=C1N[C@@H]2CN(c3ccc4c(c3)Cn3cc(-c5ccc(F)cc5)cc3-c3nccn3-4)C[C@@H]2O1` [Compound 481, (3aR,6aS)-5-(12-(4-fluorophenyl)-9H-benzo[e]imidazo[2,1-c]pyrrolo[1,2-a][1,4]diazepin-7-yl)hexahydro-2H-pyrrolo[3,4-d]oxazol-2-one] as the molecule, how does the IC50 read?
**A.** 0.2 to 1 µM

**Q.** With `CN(C)[C@@H]1CCN(c2ccc3c(c2)Cn2cc(-c4ccc(C#N)cc4)cc2-c2ncnn2-3)C1` [Compound 259, (R)-4-(7-(3-(dimethylamino)pyrrolidin-1-yl)-9H-benzo[e]pyrrolo[1,2-a][1,2,4]triazolo[5,1-c][1,4]diazepin-12-yl)benzonitrile] as the molecule, how does the IC50 read?
**A.** < 0.05 µM

**Q.** `OC1CN(c2ccc3c(c2)Cn2cc(-c4ccc(F)cc4)cc2-c2nccn2-3)CC1CN1CCC1` (single isomer, unassigned) [Compound 469] was tested. Which IC50 did it give?
**A.** < 0.05 µM

**Q.** For `CN(C)[C@@H]1CN(c2ccc3c(c2)Cn2cc(-c4ccc(C#N)cc4)cc2-c2nncn2-3)C[C@H]1O` (racemic) [Compound 57, 4-(7-(trans-3-(dimethylamino)-4-hydroxypyrrolidin-1-yl)-9H-benzo[e]pyrrolo[1,2-a][1,2,4]triazolo[3,4-c][1,4]diazepin-12-yl)benzonitrile], which IC50 is on record?
**A.** < 0.05 µM

**Q.** With `CNCC1CCN(c2ccc3c(c2)Cn2cc(-c4ccc(F)cc4)cc2-c2nccn2-3)C1` (centres unmarked) [Compound 342, 1-(1-(12-(4-fluorophenyl)-9H-benzo[e]imidazo[2,1-c]pyrrolo[1,2-a][1,4]diazepin-7-yl)pyrrolidin-3-yl)-N-methylmethanamine] as the molecule, how does the IC50 read?
**A.** < 0.05 µM

**Q.** Which IC50 does the source give for `OC[C@H]1CN(c2ccc3c(c2)Cn2cc(-c4ccc(F)cc4)cc2-c2nccn2-3)C[C@@H]1O` [Compound 484, (3R,4R)-1-(12-(4-fluorophenyl)-9H-benzo[e]imidazo[2,1-c]pyrrolo[1,2-a][1,4]diazepin-7-yl)-4-(hydroxymethyl)pyrrolidin-3-ol] here?
**A.** 0.05 to 0.1 µM
